Experimental data: ChEMBL document CHEMBL6074701, “Pyridazine Compounds as NLRP3 Inhibitors for Treating Parkinson's Disease or Frontotemporal Dementia” (ACS Med Chem Lett, 2024)

assay: Inhibition of NLRP3 inflammasome activation in human THP-1 cells assessed as reduction in LPS induced IL-1beta level preincubated with LPS for 3 hrs followed by compound addition and measured after 2 hrs in presence of nigericin by HTRF analysis; assay type: cell-based

IC50, < 0.3 nM:
CCN1CC[C@H]2CCN(c3ccc(-c4ccc(C(F)(F)F)cc4O)nn3)[C@H]2C1
CN1CC[C@H]2CCN(c3cc(C(F)F)c(-c4ccc(Cl)cc4O)nn3)[C@H]2C1
CCN1CC[C@H]2CCN(c3cc(C)c(-c4ccc(C)cc4O)nn3)[C@H]2C1
CCN1CC[C@@H]2CCN(c3cc(C)c(-c4ccc(C)cc4O)nn3)[C@@H]2C1
CCc1cc(C)cc(O)c1-c1ccc(N2CC[C@@H]3CCN(C)C[C@@H]32)nn1
Cc1cc(N2CCO[C@H]3CCN(C)C[C@H]32)nnc1-c1ccc(C(F)(F)F)cc1O
